# Where “and” joins values, the source holds several entries; their conditions need not be identical. Equal values may be shown once.
# Molecular target: Nonstructural protein 3 (Zika virus, UniProt A0A024AXB9)
# Experiment: Functional biochemical assay to identify treatments for viral infectious disease that targets Zika NS2B-NS3 protease. Utilizing a direct enzyme activity measurement method, reading the fluorescence intensity is used to characterize the relative potency of inhibitors as IC50.
# Design: species or system PRVABC59
# Nonstructural protein 3, sequence (A0A024AXB9 whole entry): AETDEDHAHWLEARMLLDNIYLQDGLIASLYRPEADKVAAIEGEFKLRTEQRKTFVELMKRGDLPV
row,Structure (SMILES),IC50
1,NCc1cccc(NC(=O)[C@H](NC(=O)OCc2ccccc2)c2cccc(OCc3ncccn3)c2)c1,> 99.5 µM
2,CCc1cccc(NC(=O)[C@]2(Oc3ccc(Br)cc3)CCNC3(CC3)C2)c1,> 99.5 µM
3,OCC#C[C@H](Nc1ccc(-c2nnn[nH]2)cc1)c1cc(Cl)cc(C2CC2)c1,> 99.5 µM
4,NCc1cccc(NC(=O)[C@H]2c3ccc(Br)cc3OCCN2C(=O)OCc2ccccc2)c1,> 99.5 µM
5,NCC1(NC(=O)[C@H](NC(=O)OCc2ccccc2)c2ccc(OCc3ccccc3)cc2)CCCCC1,58.5 µM
6,O=C(O)c1cc(Cl)ccc1S(=O)(=O)Nc1ccc(CCN2CCCC2)cc1,> 99.5 µM
7,CCc1[nH]c2ccccc2c1CN1CCC(c2cscn2)CC1,21 µM
8,Cc1ccc(-c2nc(NC(=O)[C@H](NC(=O)OCc3ccccc3)c3ccc(OCc4ccccc4)cc3)sc2CN(C)C)cc1,> 99.5 µM
9,c1ccc2c(CN3CCC(n4cccn4)CC3)c[nH]c2c1,> 99.5 µM
10,CCn1cc(-c2cn(C)nc2C(F)(F)F)nc(N2CC[C@@H](CO)C2)c1=O,> 99.5 µM
11,N=C(N)NCc1ccc(NC(=O)Oc2ccccc2)cc1,> 100 µM
12,COC(=O)c1cncc(OCc2cc(OC)nc(N3CCNCC3)n2)c1,> 99.5 µM
13,NCc1cccc(NC(=O)[C@@H](NC(=O)OCc2ccccc2)c2ccc(-c3ccccc3F)cc2)c1,8.51 µM
14,Cn1cc(-c2cccc([C@H](NC(=O)OCc3ccccc3)C(=O)Nc3cccc(CN)c3)c2)cn1,> 99.5 µM
15,Cc1cc(C)n([C@H]2CCCN(C(=O)Nc3ccc4c(c3)CNC4)C2)n1,> 25 µM
16,C[C@@H](N)c1cccc(NC(=O)[C@@H](NC(=O)OCc2ccccc2)c2ccc(OCc3ccccc3)cc2)c1,33.6 µM
17,O=C(Nc1ccc2c(c1)CNC2)N1CC[C@H](Oc2ccc(C3CC3)cn2)C1,> 25 µM
18,O=C(Nc1cccnc1)C1CCN(Cc2c[nH]c3ccccc23)CC1,64.3 µM
19,NCc1ccncc1NS(=O)(=O)c1ccc(Oc2ccccc2Cl)cc1,94.2 µM
20,CC(C)(C#N)CS(=O)(=O)N1CCC([C@H](NC(=O)OCc2ccccc2)C(=O)Nc2cccc(CN)c2)CC1,> 99.5 µM

row,Structure (SMILES),IC50
1,CCn1c(=O)c(N2C[C@H]3CCS(=O)(=O)[C@H]3C2)nc2ccccc21,> 99.5 µM
2,CC(C)(CNCc1c[nH]c2ccccc12)c1cccnc1,> 99.5 µM
3,CCn1cc(-c2cc(F)ccc2C)nc(N2CC[C@@H](CO)C2)c1=O,> 99.5 µM
4,CCOc1ccc([C@@H](NC(=O)OCc2ccccc2)C(=O)Nc2cccc(CN)c2)cc1,> 99.5 µM
5,O=C1NC[C@H](c2ccc(OCc3ccccc3)c(Br)c2)N1C(=O)OCc1ccccc1,> 99.5 µM
6,CNC(=O)c1cc(Cl)c(OC)cc1NS(=O)(=O)c1ccc(Oc2ccccc2Cl)cc1,53.4 µM
7,Cc1n[nH]c2cc(C(=O)N3CCC(C)(NC(=O)[C@H]4C[C@H](N(C)C)C4)CC3)ccc12,> 99.5 µM
8,Cc1c(C(=O)Nc2cc(F)cc(CN)c2)cc(C2CC2)n1C,89.9 µM
9,Cc1cc(NC(=O)c2cc(C3CC3)n(C)c2C)ncc1S(N)(=O)=O,> 99.5 µM
10,c1cnc(C2CCN(Cc3c[nH]c4ccccc34)CC2)nc1,50.6 µM
11,N[C@H]1CC[C@H](NC(=O)[C@@H](NC(=O)OCc2ccccc2)c2ccc(OCc3ccccc3)cc2)C1,> 99.5 µM
12,c1cncc(C2CCN(Cc3c[nH]c4ccccc34)CC2)c1,32.6 µM
13,CCCOc1ccc2[nH]cc(CN3CCC(c4cscn4)CC3)c2c1,> 99.5 µM
14,NCc1cccc(NC(=O)[C@H](NC(=O)c2ccncc2)c2ccc(OCc3ccccc3)cc2)c1,> 99.5 µM
15,Cn1cc(C(=O)N[C@@H](C(=O)Nc2cccc(CN)c2)c2ccc(OCc3ccccc3)cc2)cn1,> 99.5 µM
16,CCn1c(=O)c(N2C[C@H]3CCCN3C(=O)[C@H]2C)nc2ccccc21,> 99.5 µM
17,Brc1csc(CNCCc2nnc[nH]2)c1,> 99.5 µM
18,CC[C@H]1CN(C(=O)c2ccc(C3(CN)CC3)cc2)Cc2ccccc21,> 99.5 µM
19,CS(=O)(=O)c1ccc(N2CCNCC2)cc1NC(=O)c1cccc2ncccc12,> 99.5 µM
20,C[C@@H]1C[C@@H](C(=O)Nc2cccc(CN)c2)CCO1,> 99.5 µM

row,Structure (SMILES),IC50
1,Cc1cc(=O)c(C(=O)Nc2cccc(CN)c2)nn1-c1ccccc1C(F)(F)F,> 99.5 µM
2,CN1CCC[C@H]1COc1ccc([C@@H](NC(=O)OCc2ccccc2)C(=O)Nc2cccc(CN)c2)cc1,> 99.5 µM
3,Cn1cc(C(=O)O)c(NS(=O)(=O)c2ccc(Oc3ccccc3Cl)cc2)n1,> 99.5 µM
4,c1ccc2[nH]c(CC3CCN(Cc4nccs4)CC3)nc2c1,> 99.5 µM
5,NCc1cccc(NC(=O)c2cc(Cl)ccc2NS(=O)(=O)c2ccc(Oc3ccccc3Cl)cc2)c1,> 99.5 µM
6,CCn1c(=O)c(N2CC[C@H](CO)C2)nc2cc(C(=O)N(C)C)ccc21,> 99.5 µM
7,OCCOc1cc(COc2cccnc2F)nc(N2CCNCC2)n1,> 99.5 µM
8,CCc1n[nH]cc1-c1cccc([C@H](NC(=O)OCc2ccccc2)C(=O)Nc2cccc(CN)c2)c1,> 99.5 µM
9,O=C(Cn1ccnc(N2CC[C@H](CO)C2)c1=O)NCc1cccs1,> 99.5 µM
10,NCc1cccc(NC(=O)[C@H]2c3ccc(OCc4ccccc4)cc3CCN2C(=O)OCc2ccccc2)c1,17.3 µM
11,Cc1n[nH]cc1-c1ccc([C@@H](NC(=O)OCc2ccccc2)C(=O)Nc2cccc(CN)c2)cc1,> 99.5 µM
12,Cc1cc(C)c([C@@H](CC(=O)Nc2cccc(CN)c2)NC(=O)OCc2ccccc2)cc1C,5.67 µM and 6.27 µM
13,Cc1c(C(=O)Nc2cc(C(=O)N[C@H]3CNC(=O)C3)ccn2)cc(C2CC2)n1C,> 25 µM
14,O=C(O)c1cc(Cl)ccc1S(=O)(=O)N[C@H]1CCN(Cc2ccccc2)C(=O)C1,> 99.5 µM
15,CCn1ccnc(N2CC[C@H](c3ccc(C#N)cc3)C2)c1=O,> 99.5 µM
16,CSCc1nnc(SCc2ccncc2)o1,> 99.5 µM
17,O=C(N[C@@H](C(=O)Nc1nc2c(s1)CNC2)c1ccc(OCc2ccccc2)cc1)OCc1ccccc1,> 99.5 µM
18,N[C@]12CCC[C@](C(=O)NCc3ccc4c(c3)CCNCC4)(CC1)C2,> 99.5 µM

# Continued, values first:
row,IC50,Structure (SMILES)
1,> 99.5 µM,CN(C)C(=O)Nc1cccc([C@@H]2C[C@H]2c2cc(Cl)cc(NC(=O)OCc3ccccc3)c2)c1
2,0.042 µM and 0.029 µM,Cn1nccc1-c1cc(NC(=O)c2cc(F)cc3[nH]ncc23)cc2c1CNC2
3,45.3 µM,N[C@@H]1CC[C@H](NC(=O)c2cc(Cl)cc(NC(=O)OCc3ccccc3)c2)C1
4,0.131 µM,O=C(Nc1ccc2c(c1)CNC2)c1cc(F)cc2[nH]c(CCc3cccnc3)nc12
5,> 25 µM,O=C(Nc1ccc2c(c1)CNC2)c1ccc2nc(O)sc2c1
6,33.8 µM,C=CC[C@H](Nc1cccc(C2(C(=O)O)CCC2)c1)c1cc(Cl)cc(NC(=O)OCc2ccccc2)c1
7,4.73 µM,NCc1cccc(NC(=O)c2cc(Br)cc3[nH]ccc23)c1
8,8.99 µM,CCc1cc(C(=O)Nc2cccc(CN)c2)sc1-c1ccc(Cl)cc1
9,> 99.5 µM,COc1ccc(NS(=O)(=O)c2ccc(Cl)cc2C(=O)O)cc1-n1nnnc1C
10,> 99.5 µM,Cc1cc(CC(=O)O)ccc1Cc1c[nH]c2ccc(Cl)cc12
11,> 99.5 µM,O=C(O)c1ccc(NC(=O)c2cc(Cl)cc3[nH]ncc23)cc1
12,0.404 µM and 1.27 µM,O=C1Cc2c(cccc2C(=O)Nc2ccc3c(c2)CNC3)N1
13,> 25 µM,Cc1[nH]c2ccccc2c1[C@H]1CCN(C(=O)Nc2ccc3c(c2)CNC3)C1
14,3.2 µM,CCC[C@H](C)N1Cc2ccc(NC(=O)c3cc(Cl)cc4[nH]ncc34)cc2C1
15,0.062 µM and 0.049 µM,CSCCNC(=O)[C@H](Nc1ccc2c(c1)CNC2)c1cc(Cl)cc(C2CC2)c1
16,> 25 µM,CN(C)C(=O)N1Cc2ccc(NC(=O)c3cc(Cl)cc4[nH]ncc34)cc2C1
17,> 99.5 µM,O=C(CSc1cccc(Br)c1)Nc1ccc2c(c1)CNC2
18,12 µM,NCc1cccc(NC(=O)c2cc(Cl)cc(N3CCCC3)c2)c1
19,22.3 µM,CCCCSc1ccc(Cl)cc1C(=O)Nc1cccc(CN)c1
20,7.72 µM,N[C@H]1CCN(c2ccc(NC(=O)c3cc(Cl)cc(NC(=O)OCc4ccccc4)c3)cc2)C1
21,> 99.5 µM,NC1CCN(C(=O)c2cc(Cl)cc(NC(=O)OCc3ccccc3)c2)CC1
22,0.232 µM,O=C(NCC(F)F)[C@H](Nc1ccc2c(c1)CNC2)c1cc(Cl)ccc1Cl
23,> 99.5 µM,Cc1c(C(=O)Nc2cccc(CN)c2)cc(C(C)C)n1C

row,IC50,Structure (SMILES)
1,0.456 µM and 0.295 µM,O=C(Nc1ccc2c(c1)CNC2)c1cc(F)cc(-c2ccc3c(=O)[nH]ncc3c2)c1
2,0.952 µM,O=C(O)C[C@H]1NCc2cc(NC(=O)c3cc(Cl)cc4[nH]ncc34)ccc21
3,> 99.5 µM,O=C(Nc1ccc2c(c1)CNC2)[C@H]1CCc2ccccc21
4,> 99.5 µM,COc1c(C)cc(C(=O)Nc2cccc(CN)c2)cc1NC(=O)OCc1ccccc1
5,0.024 µM and 0.023 µM and 0.062 µM and 0.015 µM and 0.017 µM and 0.065 µM,O=C(NCC(F)F)[C@H](Nc1ccc2c(c1)CNC2)c1cc(Cl)cc(C2CC2)c1
6,0.025 µM and 0.015 µM,O=C(Nc1cc2c(c(-c3c[nH]c(=O)c(F)c3)c1)CNC2)c1cc(F)cc2[nH]ncc12
7,2.46 µM,CC(C)OC(=O)Nc1cc(Cl)cc(C(=O)Nc2cccc(CN)c2)c1
8,1.03 µM,CC(C)NC(=O)[C@H](Nc1ccc2c(c1)CNC2)c1cc(F)cc2[nH]ccc12
9,> 99.5 µM,O=C(Nc1cc(Cl)cc(C(=O)Nc2n[nH]c3c2CNC32CC2)c1)OCc1ccccc1
10,> 25 µM,O=C(Nc1ccc2c[nH]nc2c1)c1cc(Cl)cc2[nH]ncc12
11,> 99.5 µM,O=C(Nc1cccc(-n2nn[nH]c2=O)c1)c1cc(Cl)cc(C2CC2)c1
12,61 µM,N[C@@H]1CC[C@H](CCNC(=O)c2cc(Cl)cc(NC(=O)OCc3ccccc3)c2)C1
13,0.047 µM and 0.042 µM,O=C(Nc1ccc2c(c1)CNC2)c1cc(Cl)cc2cn[nH]c12
14,> 99.5 µM,CNC(=O)[C@H](Nc1cccc(C(=O)O)c1)c1cc(Cl)cc2[nH]ncc12
15,3.78 µM,NCCc1ccc(NC(=O)c2cc(Cl)cc3[nH]ncc23)cc1
16,12 µM,O=C(NCc1ccc2c(c1)CNC2)c1cc(Cl)cc2[nH]ncc12
17,> 99.5 µM,Cc1ncc(NC(=O)OCc2ccccc2)cc1C(=O)Nc1cccc(CN)c1
18,< 2.49 µM,NCc1cccc(NC(=O)c2cc(Cl)cc(CN)c2)c1
19,0.494 µM,N#Cc1c[nH]c2ccc(C(=O)Nc3ccc4c(c3)CNC4)cc12
20,> 25 µM,O=C(Nc1ccc2c(c1)CNC2)N1CCC[C@H]1c1nc2ncccc2[nH]1
21,> 99.5 µM,O=C(Nc1cc(Cl)cc(C(=O)NC[C@@]23CN[C@H](CCO2)C3)c1)OCc1ccccc1
22,0.027 µM and 0.014 µM,COCc1cc(Cl)cc([C@H](Nc2ccc3c(c2)CNC3)C(=O)NCC(F)F)c1
